In patent publication US20120244567A1, “HUMAN EMBRYONIC STEM CELLS FOR HIGH THROUGHOUT DRUG SCREENING” (BUCK INSTITUTE FOR RESEARCH ON AGING, priority 2009, published 2012):
Where a name gives a salt, the structure may show the parent alone.

Tested on: dopaminergic neurons
Experimental: RNAs isolated from NSCs and neurons with and without drug treatments were hybridized to Illumina HumanRef-8 BeadChip (Illumina, Inc., San Diego, Calif., performed by Microarray core facility at the Burnham Institute for Medical Research). The Illumina array data were normalized by the quantile method, and then transformed log 2 ratio values for a zero mean for expression values of each gene across all samples. The statistical and bioinformatics analyses were conducted by using R and the bioconductor package (www.bioconductor.org). The gene set enrichment analysis was conducted using the GSEA software (www.broad.mit.edu/gsea).
The comparative results are then measured by a non-parametric, running sum statistic termed the enrichment score. The enrichment score significance is assessed by 1,000 permutation tests to compute the enrichment p-value.

[1] = enriched in treated DA neurons, Nom P-Val 0.910714
[2] = enriched in treated DA neurons, Nom P-Val 1
[3] = enriched in untreated DA neurons, NOM p-val 0
[4] = enriched in untreated DA neurons, NOM p-val 0.111111
[5] = enriched in untreated DA neurons, NOM p-val 0.166667
[6] = enriched in untreated DA neurons, NOM p-val 0.444444
[7] = enriched in untreated DA neurons, NOM p-val 0.818182
[8] = enriched in untreated DA neurons, NOM p-val 0.90625
[9] = enriched in untreated DA neurons, NOM p-val 0.955556
[10] = enriched in untreated DA neurons, NOM p-val 1

SMILES: CCCCc1oc2ccccc2c1C(=O)c1cc(I)c(OCCN(CC)CC)c(I)c1 [Amiodarone Hydrochloride]
- Nes: Transferase Activity Transferring Glycosyl Groups (enriched in treated DA neurons, Nom P-Val 0.864865): 0.8297
- Nes: Cation Binding (enriched in treated DA neurons, Nom P-Val 0.894737): 0.7825
- Nes: Calmodulin Binding [1]: 0.6917
- Nes: Protein N Terminus Binding [1]: 0.7167
- Nes: Guanyl Nucleotide Binding (enriched in treated DA neurons, Nom P-Val 0.913044): 0.72
- Nes: Hydrolase Activity Acting On Ester Bonds (enriched in treated DA neurons, Nom P-Val 0.924051): 0.7747
- Nes: Transcription Corepressor Activity (enriched in treated DA neurons, Nom P-Val 0.942857): 0.6958
- Nes: Atpase Activity Coupled To Transmembrane Movement Of Ions (enriched in treated DA neurons, Nom P-Val 0.944444): 0.5935
- Nes: Structural Molecule Activity (enriched in treated DA neurons, Nom P-Val 0.963415): 0.7324
- Nes: Transferase Activity Transferring Alkyl Or Aryl Other Than Methyl Groups (enriched in treated DA neurons, Nom P-Val 0.968254): 0.6284
- Nes: Actin Filament Binding (enriched in treated DA neurons, Nom P-Val 0.983871): 0.3138
- Nes: Mrna Binding (enriched in treated DA neurons, Nom P-Val 0.984375): 0.4087
- Nes: Transcription Factor Binding (enriched in treated DA neurons, Nom P-Val 0.987013): 0.742
- Nes: Phosphoric Ester Hydrolase Activity (enriched in treated DA neurons, Nom P-Val 0.9875): 0.6959
- Nes: Atpase Activity [2]: 0.6528
- Nes: Rna Binding [2]: 0.4406
- Nes: Translation Initiation Factor Activity [2]: 0.3311
- NES: Gtpase Binding [3]: −1.62
- NES: Hydrolase Activity Hydrolyzing O Glycosyl Compounds [3]: −1.479
- NES: Ras Gtpase Binding (enriched in untreated DA neurons, NOM p-val 0.02): −1.585
- NES: Cation Channel Activity (enriched in untreated DA neurons, NOM p-val 0.027778): −1.394
- NES: Small Gtpase Binding (enriched in untreated DA neurons, NOM p-val 0.047619): −1.4967
- NES: Gated Channel Activity (enriched in untreated DA neurons, NOM p-val 0.051282): −1.491
- NES: Ion Channel Activity (enriched in untreated DA neurons, NOM p-val 0.060606): −1.2
- NES: Hydrolase Activity Acting On Glycosyl Bonds (enriched in untreated DA neurons, NOM p-val 0.08): −1.414
- NES: Nucleobase Nucleoside Nucleotide Kinase Activity (enriched in untreated DA neurons, NOM p-val 0.081081): −1.368
- NES: Voltage Gated Channel Activity (enriched in untreated DA neurons, NOM p-val 0.085714): −1.284
- NES: Kinase Binding (enriched in untreated DA neurons, NOM p-val 0.1): −1.316
- NES: Exopeptidase Activity (enriched in untreated DA neurons, NOM p-val 0.105263): −1.3223
- NES: Metal Ion Transmembrane Transporter Activity [4]: −1.269
- NES: Potassium Channel Activity [4]: −1.325
- NES: Substrate Specific Channel Activity (enriched in untreated DA neurons, NOM p-val 0.129032): −1.221
- NES: Chromatin Binding (enriched in untreated DA neurons, NOM p-val 0.142857): −1.239
- NES: Gtpase Activator Activity (enriched in untreated DA neurons, NOM p-val 0.157895): −1.222
- NES: Phosphoprotein Phosphatase Activity (enriched in untreated DA neurons, NOM p-val 0.162162): −1.15
- NES: Electron Carrier Activity [5]: −1.204
- NES: Voltage Gated Cation Channel Activity [5]: −1.174
- NES: Transition Metal Ion Binding (enriched in untreated DA neurons, NOM p-val 0.171429): −1.098
- NES: Protein C Terminus Binding (enriched in untreated DA neurons, NOM p-val 0.212121): −1.195
- NES: Helicase Activity (enriched in untreated DA neurons, NOM p-val 0.216216): −1.187
- NES: Protein Complex Binding (enriched in untreated DA neurons, NOM p-val 0.222222): −1.133
- NES: Enzyme Binding (enriched in untreated DA neurons, NOM p-val 0.233333): −1.04
- NES: Ras Gtpase Activator Activity (enriched in untreated DA neurons, NOM p-val 0.243902): −1.144
- NES: S Adenosylmethionine Dependent Methyltransferase Activity (enriched in untreated DA neurons, NOM p-val 0.25): −1.2358
- NES: Ligand Gated Channel Activity (enriched in untreated DA neurons, NOM p-val 0.263158): −1.236
- NES: Cation Transmembrane Transporter Activity (enriched in untreated DA neurons, NOM p-val 0.291667): −1.08
- NES: Rho Gtpase Activator Activity (enriched in untreated DA neurons, NOM p-val 0.297297): −1.16
- NES: Rna Dependent Atpase Activity (enriched in untreated DA neurons, NOM p-val 0.318182): −1.11
- NES: Atp Dependent Helicase Activity (enriched in untreated DA neurons, NOM p-val 0.324324): −1.133
- NES: Methyltransferase Activity (enriched in untreated DA neurons, NOM p-val 0.340909): −1.089
- NES: Auxiliary Transport Protein Activity (enriched in untreated DA neurons, NOM p-val 0.347826): −1.141
- NES: Transcription Factor Activity (enriched in untreated DA neurons, NOM p-val 0.35): −1.022
- NES: Rna Helicase Activity (enriched in untreated DA neurons, NOM p-val 0.365854): −1.053
- NES: Growth Factor Activity (enriched in untreated DA neurons, NOM p-val 0.367347): −1.079
- NES: Small Gtpase Regulator Activity (enriched in untreated DA neurons, NOM p-val 0.387097): −1.038
- NES: Phosphotransferase Activity Phosphate Group As Acceptor (enriched in untreated DA neurons, NOM p-val 0.431818): −1.058
- NES: Protein Tyrosine Phosphatase Activity (enriched in untreated DA neurons, NOM p-val 0.432432): −1.019
- NES: Peptidase Activity [6]: −0.9811
- NES: Tubulin Binding [6]: −0.9894
- NES: Cytokine Binding (enriched in untreated DA neurons, NOM p-val 0.459459): −0.9644
- NES: Gtpase Regulator Activity (enriched in untreated DA neurons, NOM p-val 0.461538): −0.9685
- NES: Actin Binding (enriched in untreated DA neurons, NOM p-val 0.464286): −1.007
- NES: Transferase Activity Transferring One Carbon Groups (enriched in untreated DA neurons, NOM p-val 0.466667): −0.9965
- NES: Receptor Binding (enriched in untreated DA neurons, NOM p-val 0.47619): −0.9865
- NES: Protein Serine Threonine Phosphatase Activity (enriched in untreated DA neurons, NOM p-val 0.48718): −0.9907
- NES: Polysaccharide Binding (enriched in untreated DA neurons, NOM p-val 0.5): −0.9231
- NES: Atp Dependent Rna Helicase Activity (enriched in untreated DA neurons, NOM p-val 0.52381): −1.022
- NES: Sh3 Sh2 Adaptor Activity (enriched in untreated DA neurons, NOM p-val 0.542857): −0.8755
- NES: Pattern Binding (enriched in untreated DA neurons, NOM p-val 0.567568): −0.9438
- NES: Glycosaminoglycan Binding (enriched in untreated DA neurons, NOM p-val 0.571429): −0.9097
- NES: Phosphoric Monoester Hydrolase Activity (enriched in untreated DA neurons, NOM p-val 0.612903): −0.9735
- NES: Hydrolase Activity Acting On Carbon Nitrogen But Not Peptide Bonds (enriched in untreated DA neurons, NOM p-val 0.634146): −0.8501
- NES: Cofactor Binding (enriched in untreated DA neurons, NOM p-val 0.636364): −0.8571
- NES: Protein Tyrosine Kinase Activity (enriched in untreated DA neurons, NOM p-val 0.657143): −0.8381
- NES: Oxidoreductase Activity Go 0016705 (enriched in untreated DA neurons, NOM p-val 0.675676): −0.8606
- NES: Growth Factor Binding (enriched in untreated DA neurons, NOM p-val 0.705882): −0.8342
- NES: Signal Sequence Binding (enriched in untreated DA neurons, NOM p-val 0.707317): −0.8186
- NES: Cysteine Type Peptidase Activity (enriched in untreated DA neurons, NOM p-val 0.714286): −0.844
- NES: Dna Dependent Atpase Activity (enriched in untreated DA neurons, NOM p-val 0.783784): −0.8332
- NES: Cysteine Type Endopeptidase Activity [7]: −0.8093
- NES: Oxidoreductase Activity [7]: −0.9148
- NES: Organic Acid Transmembrane Transporter Activity (enriched in untreated DA neurons, NOM p-val 0.833333): −0.7234
- NES: Lipid Binding (enriched in untreated DA neurons, NOM p-val 0.852941): −0.7964
- NES: Ribonuclease Activity (enriched in untreated DA neurons, NOM p-val 0.875): −0.6173
- NES: Protein Kinase Regulator Activity (enriched in untreated DA neurons, NOM p-val 0.885714): −0.7344
- NES: Rna Splicing Factor Activity Transesterification Mechanism (enriched in untreated DA neurons, NOM p-val 0.891892): −0.5675
- NES: Specific Rna Polymerase Ii Transcription Factor Activity (enriched in untreated DA neurons, NOM p-val 0.904762): −0.6412
- NES: Isomerase Activity [8]: −0.6048
- NES: Transcription Activator Activity [8]: −0.8411
- NES: Kinase Regulator Activity (enriched in untreated DA neurons, NOM p-val 0.911765): −0.6989
- NES: Phospholipid Binding (enriched in untreated DA neurons, NOM p-val 0.914894): −0.6869
- NES: Atpase Activity Coupled (enriched in untreated DA neurons, NOM p-val 0.925926): −0.7071
- NES: Carboxylic Acid Transmembrane Transporter Activity (enriched in untreated DA neurons, NOM p-val 0.947368): −0.696
- NES: Phosphoinositide Binding (enriched in untreated DA neurons, NOM p-val 0.953488): −0.5604
- NES: Amino Acid Transmembrane Transporter Activity [9]: −0.4938
- NES: Serine Hydrolase Activity [9]: −0.6304
- NES: Hormone Receptor Binding (enriched in untreated DA neurons, NOM p-val 0.969697): −0.4774
- NES: Protein Heterodimerization Activity (enriched in untreated DA neurons, NOM p-val 0.971429): −0.7909
- NES: Oxidoreductase Activity Acting On Nadh Or Nadph (enriched in untreated DA neurons, NOM p-val 0.975): −0.4995
- NES: Serine Type Peptidase Activity (enriched in untreated DA neurons, NOM p-val 0.97561): −0.6529
- NES: Amine Transmembrane Transporter Activity [10]: −0.4108
- NES: Nucleotidyltransferase Activity [10]: −0.497
- NES: Structural Constituent Of Ribosome [10]: −0.2676
- NES: Serine Type Endopeptidase Activity (enriched in untreated DA neurons, NOM p-val […]): −0.6588
